Data taken from patent US20250049888A1, “USE OF THE NEGR1 PROTEIN AND BIOLOGICALLY ACTIVE FRAGMENTS THEREOF IN THE THERAPEUTIC TREATMENT OF ALK-RELATED DISEASES” (FONDAZIONE TELETHON ETS (70%), priority 2021, published 2025).

Experiments:
ERK1/2 = ERK1/2 phosphorylation in N2a cells, western or dot blotting; type: cell-based, murine; settings: 10 minutes; for ERK1/2 phosphorylation (phospho-ERK/ERK): synthetic peptides, 10 μM
Method: Protein level and relative phosphorylation was assessed by western blotting. Briefly, upon a wash in PBS, cells were solubilized in lysis buffer (150 mM NaCl, 50 mM HEPES, 0.5% NP40, 1% sodium-deoxycholate). After 1 hour under mild agitation, the lysate was clarified by centrifugation for 20 min at 16,000 g. All experimental procedures were performed at 4° C. Protein concentrations were evaluated via Bradford assay (Bio-Rad, USA). For Western blotting experiments, an equal amount of proteins was diluted with 0.25% 5× Laemmli buffer. The samples were separated on 10% SDS-PAGE gels which were transferred onto nitrocellulose membrane (Sigma-Aldrich) at 80 V for 120 min at 4° C. Primary antibodies were: Beta-actin (Santa Cruz Biotechnology, sc-47778), ALK (Santa Cruz Biotechnology, sc-398791), N-myc (Santa Cruz Biotechnology, sc-56729), Phospho-p44/42 MAPK (Erk1/2) (Thr202/Tyr204) (Cell Signaling Technology), p44/42 MAPK (Erk1/2) (137F5) Rabbit mAb (Cell Signaling Technology), Akt (pan) (11E7) Rabbit mAb (Cell Signaling Technology), Phospho-Akt (Ser473) (D9E) XP® Rabbit mAb (Cell Signaling Technology), S6 Ribosomal Protein (5G10) Rabbit mAb (Cell Signaling Technology). Antibodies were applied overnight in blocking buffer (20 mM Tris, pH 7.4, 150 mM NaCl, 0.1% Tween 20, and 5% nonfat dry milk). Proteins were detected using the ECL prime detection system (GE Healthcare). The ECL signals were acquired with the imaging ChemiDoc Touch system (Bio Rad Laboratory Italy, Segrate, Italy). The optical density of the specific bands was quantified with ImageLab software (Bio Rad).
ALK triggers a signaling cascade that involves ERK and AKT kinases phosphorylation.
Additionally, the N2a cells were treated with the following synthetic peptides: the synthetic version of PepA-1 (synPepA-1), a scramble peptide including the GDKISV sequence (scr-GDKISV, substituting the W, tryptophan, that can undergo oxidation, with I, Isoleucine), and a scramble peptide (10 μM, 10 minutes). […]

N2a cells [1] = assay: N2a proliferation, cell number at DIV5; type: cell-based, murine; settings: 200 ng daily, vs GFP
Method: Next, 10,000 naive N2a cells were seeded and treated daily with 200 ng Negr1, PepA, PepB, PepC, or GFP. At DIV5, cell number was evaluated.

N2a cells [2] = assay: N2a cell growth, MTT assay; type: cell-based, murine
Method: (§1) The 3-(4,5-dimethylthiazol-2-yl)-2,5-diphenyl tetrazolium bromide (MTT) assay was performed to evaluate culture vitality. N2a cells were cultured in a 96-well plate at a concentration of 5×10^3 cell/cm^2. Treatment condition is indicated in the result section. At the end of the treatment, the MTT solution was added to the cell medium at a final concentration of 0.25 mg/mL. The incubation lasted 30 minutes at 37° C. Next, the medium was removed and the formazan precipitates were collected in DMSO (200 μL). The absorbance was measured at 570 nm using a spectrophotometer (Varioskan LUX, Thermofisher) as a proxy for cell viability. Relative cell viability fold is expressed over the control condition.
At the physiological level, Negr1 exists as a GPI-anchored membrane-bound protein and as a soluble protein released upon metalloprotease cleavage (Sanz et al. 2015; Pischedda and Piccoli 2015). Thus, the inventors studied whether ectopic treatment with soluble recombinant Negr1 (Negr1) might modulate cancer cell growth. […] At DIV5, cellular growth was evaluated by MTT assay.
To further narrow down the minimal biologically active sequence within PepA, the PepA structure was analysed in silico. […] At DIV5, cellular growth was evaluated by MTT assay.

[3] = system: A549 (adenocarcinoma alveolar basal epithelial cells); assay: Growth of human cancer-derived cell line, MTT assay; type: cell-based; settings: 200 ng daily, vs GFP
Method: as §1
(§2) Next, the capability of Negr1 and peptide PepA to halt the growth of human cancer-derived cell lines, namely U87 (glioblastoma), SK-Mel5 (melanoma), MCF7 (breast adenocarcinoma), A549 (adenocarcinoma alveolar basal epithelial cells), and SH-SY5Y (neuroblastoma) was tested. To this aim, each line was treated daily with 200 ng GFP, rNegr1, or PepA. At DIV5, cellular growth was evaluated by MTT assay. […] Such results are in good agreement with the expression of the receptor ALK, that has been experimentally detected in cancer cell lines of ectodermal origin (including small cell lung carcinoma, breast carcinoma, melanoma, neuroblastoma, and glioblastoma) (Dirks et al. 2002).

[4] = system: MCF7 (breast adenocarcinoma); assay: as above; type: cell-based; settings: 200 ng daily, vs GFP
Method: as §1, §2

U87 (glioblastoma) = assay: as above; type: cell-based; settings: 200 ng daily, vs GFP
Method: as §1, §2

SH-SY5Y (neuroblastoma) = assay: as above; type: cell-based; settings: 200 ng daily, vs GFP
Method: as §1, §2

SK-Mel5 (melanoma) = assay: as above; type: cell-based; settings: 200 ng daily, vs GFP
Method: as §1, §2

NRGDKISVSVSSSSGGRAWDWDIAKPGLAILTF (Scramble-GDKISV) [scr-GDKISV]
ERK1/2 phosphorylation (phospho-ERK/ERK) (ERK1/2): reduced ERK1/2 phosphorylation

DGASKGAWLNRSSIIFAGVWGSKDDPRVSISTL (PepA-1-6aa scramble) [reference compound]
ERK1/2 phosphorylation (phospho-ERK/ERK) (ERK1/2): did not alter ERK phosphorylation

Negr1: soluble recombinant full-length Negr1 protein, Strep-FLAG tagged, expressed and purified from HEK293 cells
N2a proliferation (cell number) at DIV5 (N2a cells [1]): significantly reduced N2a proliferation | N2a growth (MTT) at DIV5 (N2a cells [2]; 200 ng daily, vs GFP): significantly reduced N2a growth | N2A growth / cellular vitality (MTT) at DIV5 (N2a cells [2]; 3 μM daily, vs vehicle (Lorlatinib) or GFP (rNegr1, PepA-1)): impaired N2A growth to a similar extent | growth of A549 cells (MTT) at DIV5 [3]: significantly reduce the growth | growth of MCF7 cells (MTT) at DIV5 [4]: significantly reduce the growth | growth of U87 cells (MTT) at DIV5 (U87 (glioblastoma)): significantly reduce the growth | growth of SH-SY5Y cells (MTT) at DIV5 (SH-SY5Y (neuroblastoma)): significantly reduce the growth | growth of SK-Mel5 cells (MTT) at DIV5 (SK-Mel5 (melanoma)): significantly reduce the growth

GDKWSV (minimum active sequence) [GDKWSV peptide]
ERK1/2 phosphorylation (dot-blot) (ERK1/2; 30 nM): severe reduction of ERK1/2 phosphorylation
